Converted amounts (≈) assume the structure as drawn. The source made the active and inactive calls. The rule behind the calls is not given here.
Columns and labels:
[1] = Solubility of compound at pH 7 buffer; format: physicochemical
[2] = Cmax in Harlan nu/nu mouse at 10 mg/kg, iv administered as single dose by LC-MS/MS analysis; format: ADME, organism-based; set-up: dose 10 mg/kg, route intravenous; settings: in vivo
[3] = Half life in Harlan nu/nu mouse at 10 mg/kg, iv administered as single dose by LC-MS/MS analysis; format: ADME, organism-based; settings: in vivo
[4] = AUC (infinity) in Harlan nu/nu mouse at 10 mg/kg, po administered as single dose by LC-MS/MS analysis; format: ADME, organism-based; set-up: dose 10 mg/kg, route oral, time infinity; settings: in vivo
[5] = Half life in Harlan nu/nu mouse at 10 mg/kg, po administered as single dose by LC-MS/MS analysis; format: ADME, organism-based; settings: in vivo
[6] = Oral bioavailability in Harlan nu/nu mouse at 10 mg/kg administered as single dose by LC-MS/MS analysis; format: ADME, organism-based; settings: in vivo
[7] = Cmax in Sprague-Dawley rat at 10 mg/kg, iv administered as single dose by LC-MS/MS analysis; format: ADME, organism-based; set-up: dose 10 mg/kg, route intravenous; settings: in vivo
[8] = AUC (infinity) in Sprague-Dawley rat at 10 mg/kg, iv administered as single dose by LC-MS/MS analysis; format: ADME, organism-based; set-up: dose 10 mg/kg, time infinity, route intravenous; settings: in vivo
[9] = Clearance in Sprague-Dawley rat at 10 mg/kg, iv administered as single dose by LC-MS/MS analysis; format: ADME, organism-based; settings: in vivo
[10] = Oral bioavailability in Sprague-Dawley rat at 10 mg/kg administered as single dose by LC-MS/MS analysis; format: ADME, organism-based; settings: in vivo
[11] = AUC (infinity) in Beagle dog at 10 mg/kg, iv administered as single dose by LC-MS/MS analysis; format: ADME, organism-based, Canis lupus familiaris; set-up: dose 10 mg/kg, route intravenous, time infinity; settings: in vivo
[12] = Clearance in Beagle dog at 10 mg/kg, iv administered as single dose by LC-MS/MS analysis; format: ADME, organism-based, Canis lupus familiaris; settings: in vivo
[13] = Half life in Beagle dog at 10 mg/kg, iv administered as single dose by LC-MS/MS analysis; format: ADME, organism-based, Canis lupus familiaris; settings: in vivo
[14] = Cmax in Beagle dog at 10 mg/kg, po administered as single dose by LC-MS/MS analysis; format: ADME, organism-based, Canis lupus familiaris; set-up: dose 10 mg/kg, route oral; settings: in vivo
[15] = Tmax in Beagle dog at 10 mg/kg, po administered as single dose by LC-MS/MS analysis; format: ADME, organism-based, Canis lupus familiaris; settings: in vivo
[16] = AUC (infinity) in Beagle dog at 10 mg/kg, po administered as single dose by LC-MS/MS analysis; format: ADME, organism-based, Canis lupus familiaris; set-up: dose 10 mg/kg, time infinity, route oral; settings: in vivo
[17] = Oral bioavailability in Beagle dog at 10 mg/kg administered as single dose by LC-MS/MS analysis; format: ADME, organism-based, Canis lupus familiaris; settings: in vivo
[18] = Cytotoxicity against mouse IL-3 dependent BA/F3 cells incubated for 72 hrs by cell titer-glo assay; format: cell-based; settings: BaF3, 72 h
[19] = target: Tyrosine-protein kinase JAK2 (Homo sapiens, UniProt O60674); assay: Inhibition of JAK2 (unknown origin) in presence of gamma33-ATP
Chain of Tyrosine-protein kinase JAK2 (O60674 whole entry): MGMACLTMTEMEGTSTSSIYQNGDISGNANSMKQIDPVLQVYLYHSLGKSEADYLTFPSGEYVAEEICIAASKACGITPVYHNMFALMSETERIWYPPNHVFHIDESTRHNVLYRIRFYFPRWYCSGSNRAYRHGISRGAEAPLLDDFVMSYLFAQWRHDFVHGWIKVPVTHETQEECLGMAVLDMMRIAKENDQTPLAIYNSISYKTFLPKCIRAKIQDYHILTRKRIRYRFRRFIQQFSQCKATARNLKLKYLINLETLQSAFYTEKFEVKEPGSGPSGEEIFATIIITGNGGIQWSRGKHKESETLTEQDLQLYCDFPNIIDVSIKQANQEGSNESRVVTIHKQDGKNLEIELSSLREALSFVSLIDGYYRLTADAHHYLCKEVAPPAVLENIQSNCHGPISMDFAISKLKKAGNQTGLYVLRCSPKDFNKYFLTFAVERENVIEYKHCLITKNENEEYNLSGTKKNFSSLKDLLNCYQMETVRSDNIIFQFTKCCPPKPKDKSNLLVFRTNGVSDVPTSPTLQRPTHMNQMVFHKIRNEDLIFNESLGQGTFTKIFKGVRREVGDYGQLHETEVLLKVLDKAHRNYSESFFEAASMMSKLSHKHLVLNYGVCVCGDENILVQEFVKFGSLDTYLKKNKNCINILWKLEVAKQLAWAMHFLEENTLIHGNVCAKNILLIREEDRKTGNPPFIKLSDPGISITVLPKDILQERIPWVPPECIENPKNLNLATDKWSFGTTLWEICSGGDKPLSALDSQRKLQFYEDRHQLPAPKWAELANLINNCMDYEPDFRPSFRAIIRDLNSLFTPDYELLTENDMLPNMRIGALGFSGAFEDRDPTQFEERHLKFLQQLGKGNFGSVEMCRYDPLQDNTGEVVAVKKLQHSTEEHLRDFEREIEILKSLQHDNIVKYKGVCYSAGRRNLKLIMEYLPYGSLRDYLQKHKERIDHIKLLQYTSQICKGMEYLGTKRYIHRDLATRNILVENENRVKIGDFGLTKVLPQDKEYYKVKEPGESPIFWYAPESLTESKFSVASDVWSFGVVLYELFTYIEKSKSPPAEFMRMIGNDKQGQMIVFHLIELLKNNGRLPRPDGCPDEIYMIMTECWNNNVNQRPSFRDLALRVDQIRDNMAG

[20] = target: Vascular endothelial growth factor receptor 2 (Homo sapiens, UniProt P35968); assay: Inhibition of VEGFR2 (unknown origin) in presence of gamma33-ATP
Chain of Vascular endothelial growth factor receptor 2 (P35968 whole entry): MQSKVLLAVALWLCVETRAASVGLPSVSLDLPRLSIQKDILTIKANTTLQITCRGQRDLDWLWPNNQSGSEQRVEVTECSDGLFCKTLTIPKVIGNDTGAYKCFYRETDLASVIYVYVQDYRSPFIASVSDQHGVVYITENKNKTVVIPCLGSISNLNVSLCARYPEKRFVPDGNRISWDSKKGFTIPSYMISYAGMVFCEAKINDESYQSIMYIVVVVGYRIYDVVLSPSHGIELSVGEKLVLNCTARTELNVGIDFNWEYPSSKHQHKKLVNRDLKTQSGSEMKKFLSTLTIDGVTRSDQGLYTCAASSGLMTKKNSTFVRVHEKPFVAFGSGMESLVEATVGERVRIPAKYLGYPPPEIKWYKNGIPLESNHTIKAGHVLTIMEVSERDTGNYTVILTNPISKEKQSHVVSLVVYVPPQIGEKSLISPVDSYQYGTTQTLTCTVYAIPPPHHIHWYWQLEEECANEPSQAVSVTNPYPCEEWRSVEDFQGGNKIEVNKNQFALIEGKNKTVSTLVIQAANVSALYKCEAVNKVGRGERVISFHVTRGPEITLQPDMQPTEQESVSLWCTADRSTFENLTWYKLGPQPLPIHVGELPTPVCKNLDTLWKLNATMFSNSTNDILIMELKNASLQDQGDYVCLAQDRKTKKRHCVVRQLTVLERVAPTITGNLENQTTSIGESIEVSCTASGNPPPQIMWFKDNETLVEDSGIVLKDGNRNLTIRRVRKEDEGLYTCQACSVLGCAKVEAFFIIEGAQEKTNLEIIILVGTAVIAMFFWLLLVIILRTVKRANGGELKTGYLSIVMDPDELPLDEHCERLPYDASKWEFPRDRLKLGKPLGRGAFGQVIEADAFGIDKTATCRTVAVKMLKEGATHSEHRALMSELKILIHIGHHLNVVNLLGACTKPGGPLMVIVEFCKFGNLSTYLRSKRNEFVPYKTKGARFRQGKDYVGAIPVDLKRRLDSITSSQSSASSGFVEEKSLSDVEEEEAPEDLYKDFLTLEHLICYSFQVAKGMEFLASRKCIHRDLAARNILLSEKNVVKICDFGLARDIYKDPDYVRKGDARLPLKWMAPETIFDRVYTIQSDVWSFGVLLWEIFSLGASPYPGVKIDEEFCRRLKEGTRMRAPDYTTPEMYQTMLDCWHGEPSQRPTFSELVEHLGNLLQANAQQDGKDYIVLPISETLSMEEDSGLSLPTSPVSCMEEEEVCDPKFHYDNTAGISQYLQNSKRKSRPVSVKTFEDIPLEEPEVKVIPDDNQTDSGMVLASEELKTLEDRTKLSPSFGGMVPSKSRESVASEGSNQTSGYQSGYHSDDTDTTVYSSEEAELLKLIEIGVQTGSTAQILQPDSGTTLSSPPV

[21] = target: Vascular endothelial growth factor receptor 3 (Homo sapiens, UniProt P35916); assay: Inhibition of VEGFR3 (unknown origin) in presence of gamma33-ATP
Chain of Vascular endothelial growth factor receptor 3 (P35916 whole entry): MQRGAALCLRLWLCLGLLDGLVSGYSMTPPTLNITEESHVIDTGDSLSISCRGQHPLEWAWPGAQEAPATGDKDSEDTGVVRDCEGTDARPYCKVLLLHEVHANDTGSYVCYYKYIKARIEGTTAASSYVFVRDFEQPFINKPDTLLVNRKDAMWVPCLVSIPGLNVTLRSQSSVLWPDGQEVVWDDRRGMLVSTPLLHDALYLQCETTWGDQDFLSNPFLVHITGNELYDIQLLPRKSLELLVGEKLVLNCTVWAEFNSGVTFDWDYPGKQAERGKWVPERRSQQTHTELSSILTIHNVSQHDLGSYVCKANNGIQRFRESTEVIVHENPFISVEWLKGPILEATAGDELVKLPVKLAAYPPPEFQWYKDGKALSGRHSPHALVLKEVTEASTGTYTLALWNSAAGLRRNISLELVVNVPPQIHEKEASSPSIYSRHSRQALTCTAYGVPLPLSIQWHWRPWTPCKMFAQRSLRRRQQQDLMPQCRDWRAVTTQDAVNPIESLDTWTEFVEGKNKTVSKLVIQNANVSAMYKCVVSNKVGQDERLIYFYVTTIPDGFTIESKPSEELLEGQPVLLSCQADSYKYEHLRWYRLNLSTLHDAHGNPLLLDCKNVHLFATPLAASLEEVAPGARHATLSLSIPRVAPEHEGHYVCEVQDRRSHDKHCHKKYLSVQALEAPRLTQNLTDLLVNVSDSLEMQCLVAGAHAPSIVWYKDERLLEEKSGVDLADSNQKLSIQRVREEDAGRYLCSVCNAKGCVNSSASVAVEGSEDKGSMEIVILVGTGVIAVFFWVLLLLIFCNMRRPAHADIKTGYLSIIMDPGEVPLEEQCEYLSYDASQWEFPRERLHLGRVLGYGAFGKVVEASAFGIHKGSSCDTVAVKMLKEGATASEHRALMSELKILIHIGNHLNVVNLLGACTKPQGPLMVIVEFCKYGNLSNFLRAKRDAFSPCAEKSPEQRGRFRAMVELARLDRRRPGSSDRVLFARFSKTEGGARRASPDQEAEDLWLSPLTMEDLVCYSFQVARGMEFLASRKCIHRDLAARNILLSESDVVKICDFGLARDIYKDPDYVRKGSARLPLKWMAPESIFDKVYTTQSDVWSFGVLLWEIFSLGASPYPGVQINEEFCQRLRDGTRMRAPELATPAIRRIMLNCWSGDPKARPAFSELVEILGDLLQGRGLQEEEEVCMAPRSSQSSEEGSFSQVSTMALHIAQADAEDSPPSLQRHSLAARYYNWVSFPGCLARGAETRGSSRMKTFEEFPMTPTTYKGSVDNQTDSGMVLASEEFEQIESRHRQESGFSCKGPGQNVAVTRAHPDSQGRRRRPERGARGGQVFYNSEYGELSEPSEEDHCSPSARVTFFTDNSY

[22] = target: Serine/threonine-protein kinase Nek6 (Homo sapiens, UniProt Q9HC98); assay: Inhibition of NEK6 (unknown origin) in presence of gamma33-ATP
Chain of Serine/threonine-protein kinase Nek6 (Q9HC98 whole entry): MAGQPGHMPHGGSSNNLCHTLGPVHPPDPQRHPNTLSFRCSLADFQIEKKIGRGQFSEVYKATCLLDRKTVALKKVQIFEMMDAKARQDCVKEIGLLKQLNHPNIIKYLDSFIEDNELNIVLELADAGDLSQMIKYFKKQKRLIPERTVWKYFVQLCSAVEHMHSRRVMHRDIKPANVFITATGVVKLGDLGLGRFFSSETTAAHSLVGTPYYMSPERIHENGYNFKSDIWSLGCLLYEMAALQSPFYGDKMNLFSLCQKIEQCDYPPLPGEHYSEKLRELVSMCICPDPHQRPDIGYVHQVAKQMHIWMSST

[23] = target: Serine/threonine-protein kinase NIM1 (Homo sapiens, UniProt Q8IY84); assay: Inhibition of NIM1 (unknown origin) in presence of gamma33-ATP
Chain of Serine/threonine-protein kinase NIM1 (Q8IY84 whole entry): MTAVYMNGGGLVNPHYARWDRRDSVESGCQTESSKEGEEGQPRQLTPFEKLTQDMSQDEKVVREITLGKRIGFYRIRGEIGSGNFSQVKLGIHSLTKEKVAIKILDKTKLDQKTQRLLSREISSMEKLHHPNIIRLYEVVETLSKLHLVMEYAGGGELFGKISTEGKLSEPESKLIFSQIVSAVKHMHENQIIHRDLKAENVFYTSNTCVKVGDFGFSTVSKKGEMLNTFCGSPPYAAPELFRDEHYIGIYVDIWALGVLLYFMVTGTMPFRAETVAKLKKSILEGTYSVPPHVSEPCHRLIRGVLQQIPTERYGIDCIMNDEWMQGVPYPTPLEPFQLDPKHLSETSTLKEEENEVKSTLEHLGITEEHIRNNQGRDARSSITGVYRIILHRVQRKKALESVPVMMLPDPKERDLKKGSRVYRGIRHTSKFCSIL

[24] = target: T1, 3-phosphoinositide-dependent protein kinase 1 (Homo sapiens, UniProt O15530); assay: Inhibition of PDK1 (unknown origin) in presence of gamma33-ATP
T1 sequence (O15530 whole entry): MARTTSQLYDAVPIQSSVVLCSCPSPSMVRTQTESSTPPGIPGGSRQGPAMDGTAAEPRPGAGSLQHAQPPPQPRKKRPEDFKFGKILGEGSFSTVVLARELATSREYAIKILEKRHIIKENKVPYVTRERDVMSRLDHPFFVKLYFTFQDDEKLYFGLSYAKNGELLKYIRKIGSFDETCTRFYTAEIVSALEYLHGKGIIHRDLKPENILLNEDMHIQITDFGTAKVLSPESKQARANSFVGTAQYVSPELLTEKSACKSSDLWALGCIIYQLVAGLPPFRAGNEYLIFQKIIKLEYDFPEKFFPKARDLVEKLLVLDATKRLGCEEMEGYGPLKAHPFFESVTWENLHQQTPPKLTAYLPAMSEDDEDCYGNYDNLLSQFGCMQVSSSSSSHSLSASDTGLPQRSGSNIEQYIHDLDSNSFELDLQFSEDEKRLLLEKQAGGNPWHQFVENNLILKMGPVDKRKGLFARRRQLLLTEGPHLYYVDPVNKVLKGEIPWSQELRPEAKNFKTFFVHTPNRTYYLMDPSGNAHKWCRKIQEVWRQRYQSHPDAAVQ

[25] = target: T2, Tyrosine-protein kinase ZAP-70 (Homo sapiens, UniProt P43403); assay: Inhibition of ZAP70 (unknown origin) in presence of gamma33-ATP
T2 sequence (P43403 whole entry): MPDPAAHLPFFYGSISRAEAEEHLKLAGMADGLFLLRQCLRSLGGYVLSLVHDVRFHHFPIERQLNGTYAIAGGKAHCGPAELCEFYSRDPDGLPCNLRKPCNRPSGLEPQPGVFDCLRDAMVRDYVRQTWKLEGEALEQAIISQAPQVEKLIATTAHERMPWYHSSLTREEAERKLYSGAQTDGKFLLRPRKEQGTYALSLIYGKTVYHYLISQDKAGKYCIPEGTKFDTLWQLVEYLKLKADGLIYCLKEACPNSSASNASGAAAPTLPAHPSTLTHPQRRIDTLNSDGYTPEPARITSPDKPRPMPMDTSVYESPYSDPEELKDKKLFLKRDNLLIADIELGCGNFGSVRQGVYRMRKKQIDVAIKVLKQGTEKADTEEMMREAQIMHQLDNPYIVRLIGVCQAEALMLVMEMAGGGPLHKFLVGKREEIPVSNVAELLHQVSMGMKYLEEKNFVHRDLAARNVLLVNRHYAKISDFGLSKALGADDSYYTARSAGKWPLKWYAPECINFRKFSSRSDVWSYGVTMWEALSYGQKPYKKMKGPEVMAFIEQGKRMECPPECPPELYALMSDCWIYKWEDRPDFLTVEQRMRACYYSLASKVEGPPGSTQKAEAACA

[26] = Plasma concentration in Harlan nu/nu mouse at 240 mg/kg, po administered per day for 2 weeks measured 6 hrs post last dose by LC-MS/MS analysis; format: ADME, organism-based
[27] = Drug uptake in Harlan nu/nu mouse brain at 240 mg/kg, po administered per day for 2 weeks measured 6 hrs post last dose by LC-MS/MS analysis; format: ADME, organism-based; settings: read-out: Drug uptake
KARPAS-299 = settings: Homo sapiens
Description: Antitumor activity against human KARPAS299 cells xenografted in SCID mouse assessed as tumor growth inhibition at 30 to 60 mg/kg, po bid administered for 10 days

NCI-H2228 = settings: Homo sapiens
Description: Antitumor activity against human NCI-H2228 cells xenografted in athymic nu/nu mouse assessed as tumor growth inhibition at 30 to 60 mg/kg, po bid administered for 10 days

solubility [1]: 20 µM (≈ 11.2 µg/mL)
Cmax [2]: 4.9 µM
half-life [3]: 3.59 h
AUC(0-inf) [4]: 17.4 µM·h
half-life [5]: 2.94 h
bioavailability [6]: 77%
Cmax [7]: 11 µM
AUC(0-inf) [8]: 15.1 µM·h
clearance [9]: 20.8 mL/min/kg
bioavailability [10]: 43%
AUC(0-inf) [11]: 17.6 µM·h
clearance [12]: 17.5 mL/min/kg
half-life [13]: 11.9 h
Cmax [14]: 0.6 µM
Tmax [15]: 2 h
AUC(0-inf) [16]: 5.7 µM·h
bioavailability [17]: 32%
IC50 [19]: 0.04 µM
IC50 [20]: > 1 µM
IC50 [21]: > 1 µM
IC50 [22]: > 10 µM
IC50 [23]: > 10 µM
IC50 [24]: > 10 µM
IC50 [25]: > 10 µM
concentration at 6 h [26]: 4.57 µM
concentration at 6 h [27]: 1.94 µM
Structure (SMILES): CN1CCN(c2ccc(C(=O)Nc3n[nH]c4ccc(Cc5cc(F)cc(F)c5)cc34)c(NC3CCOCC3)c2)CC1 [ENTRECTINIB]
IC50 [18]: 2.1 µM
TGI (KARPAS-299): Active
TGI (NCI-H2228): Active

Source: ChEMBL document CHEMBL3804811 (J Med Chem, 2016)
